Assay results from patent US10538528B2, “5H-pyrrolo[2,3-D]pyrimidin-6(7H)-one derivative” (Taiho Pharmaceutical Co., Ltd., priority 2016, dated 2020).

What was measured:
Format in all cases: biochemical
[1] = target: S6K1 (Homo sapiens (Human), UniProt P23443); assay: Inhibitory effects on S6K1 kinase activity (QSS Assist FP assay kit); conditions: S6K1, ATP 25 μM; read-out: S6K inhibitory activity IC50
Experimental: Inhibitory activity of the compound according to the present invention on S6K1 kinase activity in vitro was assayed using the QSS Assist™ FP assay kit (Carna Biosciences, Inc.).
In the inhibition assay for inhibitory activity of the compound, the test compound was diluted by serial dilution with dimethyl sulfoxide (DMSO). Subsequently, an S6K protein, a substrate peptide (final concentration: 100 nM), magnesium chloride (final concentration: 5 mM), ATP (final concentration: 25 μM), and the solution of the test compound in DMSO (final DMSO concentration: 5%) were added to the kinase reaction buffer (20 mM HEPES (pH 7.4), 2 mM dithiothreitol, 0.01% Tween-20), and the mixture was incubated at 25° C. for 30 minutes to perform the kinase reaction. The IMAP Progressive Binding Reagent diluted to 400-fold with the IMAP Progressive Binding Buffer A (Molecular Devices, LLC) was added thereto to terminate the kinase reaction. The reaction product was allowed to stand at room temperature in the dark for 120 minutes and assayed with the use of PHERAstar (BMG LABTECH; excitation wavelength: 485 nm; detection wavelength: 520 nm). The level of phosphorylation reaction was determined based on the degree of fluorescence polarization, and the concentration of the compound at which phosphorylation could be inhibited by 50% was defined as the IC50 level (nM) and shown in Table 4.

[2] = target: Rsk1 (Homo sapiens (Human), UniProt Q15418); assay: Inhibitory effects on Rsk1 kinase activity (QSS Assist FP assay kit); conditions: Rsk1, ATP 30 μM; read-out: Rsk inhibitory activity IC50
Experimental: Inhibitory activity of the compound according to the present invention on Rsk1 kinase activity in vitro was assayed using the QSS Assist™ FP assay kit (Carna Biosciences, Inc.).
In the inhibition assay of inhibitory activity of the compound, the test compound was diluted by serial dilution with dimethyl sulfoxide (DMSO). Subsequently, an Rsk1 protein, a substrate peptide (final concentration: 100 nM), magnesium chloride (final concentration: 10 mM), ATP (final concentration: 30 μM), and the solution of the test compound in DMSO (DMSO final concentration: 5%) were added to the kinase reaction buffer (20 mM HEPES (pH 7.4), 2 mM dithiothreitol, 0.01% Tween-20), and the mixture was incubated at 25° C. for 40 minutes to perform the kinase reaction. The IMAP Progressive Binding Reagent diluted to 400-fold with the IMAP Progressive Binding Buffer A (Molecular Devices, LLC) was added to terminate the kinase reaction.

[3] = target: human Akt1 (Homo sapiens (Human), UniProt P31749); assay: Inhibitory effects on Akt1 kinase activity (TR-FRET, biotinylated Crosstide); conditions: Akt1, ATP 150 μM, pre-incubation 120 minutes at 25° C.; read-out: AKT inhibitory activity IC50
Experimental: Akt1 was prepared and assays of inhibitory activity of the compound according to the present invention against Akt1 kinase activity in vitro were conducted according to the method described in Biochem. J., vol. 385, pp. 399-408, 2005 and Cancer Res., vol. 68, pp. 2366-2374, 2008. In the preparation of Akt1 protein, human Akt1 tagged with the middle T antigen was expressed in an insect cell Sf9, Akt1 was prepared through affinity purification and activation by PDK1, and the resultant was stored at −80° C. until the inhibition assays of the compounds. In the inhibition assay of the compounds, Akt1 and the compound according to the present invention were subjected to pre-incubation at 25° C. for 120 minutes in a reaction buffer (15 mM Tris-HCl, pH 7.5, 0.01% Tween-20, 2 mM DTT). Subsequently, biotinylated Crosstide (biotin-[…], Millipore), MgCl2, and ATP were added as substrates at the final concentration of 500 nM, 10 mM, and 150 μM, respectively, and the reaction was allowed to proceed at 25° C. for 60 minutes. EDTA was added to the final concentration of 40 mM to terminate the reaction, a detection liquid containing the Eu-anti-phospho-Crosstide antibody (PerkinElmer) and SureLight APC-SA (PerkinElmer) at the final concentration of 0.5 nM and 62.5 nM, respectively was added, and the reaction was allowed to proceed at room temperature for 2 hours. In the end, the fluorescence levels irradiated with an excitation light of 337 nm were assayed at two different wavelength levels (i.e., 620 nm and 665 nm) using PI-HERAstar FS (BMG LABTECH) or PHERAstar (BMG LABTECH). The level of the phosphorylation reaction was determined on the basis of the ratio of fluorescence levels at two wavelength levels, and the concentration of the compound at which phosphorylation could be inhibited by 50% was defined as the IC50 level (nM) and shown in Table 2.
As reference compounds, conventional Comparative Example A (WO 2010/056563 (Example 31)) and Comparative Example B having inhibitory activity against Akt were used.

S6K1, sequence (P23443 whole entry): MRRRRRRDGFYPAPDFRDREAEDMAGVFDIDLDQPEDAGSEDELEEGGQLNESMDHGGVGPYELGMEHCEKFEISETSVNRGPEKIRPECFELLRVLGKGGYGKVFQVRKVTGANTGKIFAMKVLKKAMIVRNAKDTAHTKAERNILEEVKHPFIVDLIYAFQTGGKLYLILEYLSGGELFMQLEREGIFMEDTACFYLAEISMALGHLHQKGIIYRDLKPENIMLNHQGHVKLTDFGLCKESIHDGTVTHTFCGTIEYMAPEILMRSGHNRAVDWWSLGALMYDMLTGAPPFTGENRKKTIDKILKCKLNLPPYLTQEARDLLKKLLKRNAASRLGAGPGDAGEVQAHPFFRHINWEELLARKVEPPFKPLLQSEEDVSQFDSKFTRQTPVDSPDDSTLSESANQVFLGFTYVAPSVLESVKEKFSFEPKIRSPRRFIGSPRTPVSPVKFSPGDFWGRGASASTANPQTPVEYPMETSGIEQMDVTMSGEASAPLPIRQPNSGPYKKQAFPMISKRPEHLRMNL
human Akt1, sequence (P31749 whole entry): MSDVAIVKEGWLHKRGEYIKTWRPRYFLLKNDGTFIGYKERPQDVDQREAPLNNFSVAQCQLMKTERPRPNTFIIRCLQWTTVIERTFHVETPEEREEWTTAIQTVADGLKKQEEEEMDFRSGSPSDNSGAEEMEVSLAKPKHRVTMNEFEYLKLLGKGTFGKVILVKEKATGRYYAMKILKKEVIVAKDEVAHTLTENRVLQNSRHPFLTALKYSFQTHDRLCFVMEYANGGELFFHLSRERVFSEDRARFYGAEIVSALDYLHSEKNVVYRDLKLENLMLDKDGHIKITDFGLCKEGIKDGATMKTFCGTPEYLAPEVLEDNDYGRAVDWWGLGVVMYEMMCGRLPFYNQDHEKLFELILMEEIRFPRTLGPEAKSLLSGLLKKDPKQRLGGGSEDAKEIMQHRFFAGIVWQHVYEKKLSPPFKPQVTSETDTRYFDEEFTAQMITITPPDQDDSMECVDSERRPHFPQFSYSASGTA
Rsk1, sequence (Q15418 whole entry): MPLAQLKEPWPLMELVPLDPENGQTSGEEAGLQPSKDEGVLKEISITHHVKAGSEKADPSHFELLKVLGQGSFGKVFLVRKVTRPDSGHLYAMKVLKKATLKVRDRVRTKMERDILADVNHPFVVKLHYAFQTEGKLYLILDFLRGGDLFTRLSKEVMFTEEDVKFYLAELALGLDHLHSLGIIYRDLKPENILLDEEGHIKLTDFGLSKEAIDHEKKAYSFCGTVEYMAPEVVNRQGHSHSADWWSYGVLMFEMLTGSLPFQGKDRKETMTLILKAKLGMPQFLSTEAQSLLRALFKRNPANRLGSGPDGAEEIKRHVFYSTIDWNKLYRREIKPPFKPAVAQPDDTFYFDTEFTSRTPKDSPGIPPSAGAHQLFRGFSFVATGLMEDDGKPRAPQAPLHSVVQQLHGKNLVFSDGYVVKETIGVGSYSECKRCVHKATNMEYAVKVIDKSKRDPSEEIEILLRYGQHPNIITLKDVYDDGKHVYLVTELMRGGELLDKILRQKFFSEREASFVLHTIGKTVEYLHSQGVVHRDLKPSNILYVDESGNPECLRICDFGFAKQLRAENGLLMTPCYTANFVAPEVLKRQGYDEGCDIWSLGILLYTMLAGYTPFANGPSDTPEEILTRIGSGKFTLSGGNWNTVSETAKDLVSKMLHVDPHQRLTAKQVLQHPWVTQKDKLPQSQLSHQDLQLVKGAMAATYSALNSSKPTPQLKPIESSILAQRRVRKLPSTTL

SMILES | IC50 [1] | IC50 [2] | IC50 [3]
CC1(C)C(=O)Nc2ncnc(N3CCC(c4nc(-c5ccc(F)nc5)ccc4NCCN4CCCC4)CC3)c21 [Compound 2, 4-(4-(6′-Fluoro-5-((2-(pyrrolidin-1-yl)ethyl)amino)-[2,3′-bipyridin]-6-yl)piperidin-1-yl)-5,5-dimethyl-5H-pyrrolo[2,3-d]pyrimidin-6(7H)-one] | 0.3 nM | 1.5 nM | 
Cc1cc(-c2ccc(NCCN3CCCC3)c(C3CCN(c4ncnc5c4C(C)(C)C(=O)N5)CC3)n2)n(C)n1 [Compound 3, 4-(4-(6-(1,3-Dimethyl-1H-pyrazol-5-yl)-3-((2-(pyrrolidin-1-yl)ethyl)amino)pyridin-2-yl)piperidin-1-yl)-5,5-dimethyl-5H-pyrrolo[2,3-d]pyrimidin-6(7H)-one] | 0.4 nM |  | 
CC1(C)C(=O)Nc2ncnc(N3CCC(c4nc(-c5cncc(F)c5)ccc4NCCN4CCCC4)CC3)c21 [Compound 8, 4-(4-(5′-Fluoro-5-((2-(pyrrolidin-1-yl)ethyl)amino)-[2,3′-bipyridin]-6-yl)piperidin-1-yl)-5,5-dimethyl-5H-pyrrolo[2,3-d]pyrimidin-6(7H)-one] | 0.3 nM | 1.7 nM | 
CC(C)NCCNc1ccc(-c2cc(C(F)(F)F)nn2C)nc1C1CCN(c2ncnc3c2C(C)(C)C(=O)N3)CC1 [Compound 10, 4-(4-(3-((2-(Isopropylamino)ethyl)amino)-6-(1-methyl-3-(trifluoromethyl)-1H-pyrazol-5-yl)pyridin-2-yl)piperidin-1-yl)-5,5-dimethyl-5H-pyrrolo[2,3-d]pyrimidin-6(7H)-one] | 0.3 nM | 0.9 nM | 
Cc1ncccc1-c1ccc(NCCN2CCCC2)c(C2CCN(c3ncnc4c3C(C)C(=O)N4)CC2)n1 (stereo not shown) [Compound 22, 5-Methyl-4-(4-(2′-methyl-5-((2-(pyrrolidin-1-yl)ethyl)amino)-[2,3′-bipyridin]-6-yl)piperidin-1-yl)-5H-pyrrolo[2,3-d]pyrimidin-6(7H)-one] |  |  | 1.8 nM
CC1C(=O)Nc2ncnc(N3CCC(c4nc(-c5ncco5)ccc4NCCN4CCCC4)CC3)c21 (stereo not shown) [Compound 25, 5-Methyl-4-(4-(6-(oxazol-2-yl)-3-((2-(pyrrolidin-1-yl)ethyl)amino)pyridin-2-yl)piperidin-1-yl)-5H-pyrrolo[2,3-d]pyrimidin-6(7H)-one] |  |  | 2.7 nM
CC1C(=O)Nc2ncnc(N3CCN(c4nc(-c5cncc(F)c5)ccc4NCCN(C)C)CC3)c21 (stereo not shown) [Compound 29, 4-(4-(5-((2-(Dimethylamino)ethyl)amino)-5′-fluoro-[2,3′-bipyridin]-6-yl)piperazin-1-yl)-5-methyl-5H-pyrrolo[2,3-d]pyrimidin-6(7H)-one] | 0.8 nM |  | 
CN(C)CCNc1ccc(-c2nnc(C(F)F)s2)nc1C1CCN(c2ncnc3c2C(C)(C)C(=O)N3)CC1 [Compound 38, 4-(4-(6-(5-(Difluoromethyl)-1,3,4-thiadiazol-2-yl)-3-((2-(dimethylamino)ethyl)amino)pyridin-2-yl)piperidin-1-yl)-5,5-dimethyl-5H-pyrrolo[2,3-d]pyrimidin-6(7H)-one] | 0.3 nM | 0.9 nM | 

Continued by falling IC50 [1], values first:

IC50 [1] | IC50 [2] | IC50 [3] | SMILES
0.4 nM |  |  | CC(C)(C)NCCNc1ccc(-c2cnn(C(F)F)c2)nc1C1CCN(c2ncnc3c2C(C)(C)C(=O)N3)CC1 [Compound 4]
0.4 nM | 1 nM |  | Cc1nc(C)c(-c2ccc(NCCNC(C)C)c(C3CCN(c4ncnc5c4C(C)(C)C(=O)N5)CC3)n2)s1 [Compound 6, 4-(4-(6-(2,4-Dimethylthiazol-5-yl)-3-((2-(isopropylamino)ethyl)amino)pyridin-2-yl)piperidin-1-yl)-5,5-dimethyl-5H-pyrrolo[2,3-d]pyrimidin-6(7H)-one]
0.4 nM | 1.5 nM |  | CC1(C)C(=O)Nc2ncnc(N3CCC(c4nc(-c5nnc(C(F)(F)F)o5)ccc4NC[C@@H]4CCCN4)CC3)c21 [Compound 35, (S)-5,5-Dimethyl-4-(4-(3-((pyrrolidin-2-yl-methyl)amino)-6-(5-(trifluoromethyl)-1,3,4-oxadiazol-2-yl)pyridin-2-yl)piperidin-1-yl)-5H-pyrrolo[2,3-d]pyrimidin-6(7H)-one]
0.4 nM |  |  | Cc1nnc(-c2ccc(NCCN3CCCC3)c(C3CCN(c4ncnc5c4C(C)(C)C(=O)N5)CC3)n2)s1 [Compound 36, 5,5-Dimethyl-4-(4-(6-(5-methyl-1,3,4-thiadiazol-2-yl)-3-((2-(pyrrolidin-1-yl)ethyl)amino)pyridin-2-yl)piperidin-1-yl)-5H-pyrrolo[2,3-d]pyrimidin-6(7H)-one]
0.3 nM | 0.7 nM | 3.5 nM | CC(C)NCCNc1ccc(-c2cnc(F)c(F)c2)nc1C1CCN(c2ncnc3c2C(C)(C)C(=O)N3)CC1 [Compound 5, 4-(4-(5′,6′-Difluoro-5-((2-(isopropylamino)ethyl)amino)-[2,3′-bipyridin]-6-yl)piperidin-1-yl)-5,5-dimethyl-5H-pyrrolo[2,3-d]pyrimidin-6(7H)-one]
0.3 nM | 1.7 nM |  | COc1cncc(-c2ccc(NCCN3CCCC3)c(C3CCN(c4ncnc5c4C(C)(C)C(=O)N5)CC3)n2)c1 [Compound 7, 4-(4-(5′-Methoxy-5-((2-(pyrrolidin-1-yl)ethyl)amino)-[2,3′-bipyridin]-6-yl)piperidin-1-yl)-5,5-dimethyl-5H-pyrrolo[2,3-d]pyrimidin-6(7H)-one]
0.3 nM | 1.1 nM |  | CN(C)CCNc1ccc(-c2cc(Cl)nn2C)nc1C1CCN(c2ncnc3c2C(C)(C)C(=O)N3)CC1 [Compound 9, 4-(4-(6-(3-Chloro-1-methyl-1H-pyrazol-5-yl)-3-((2-(dimethylamino)ethyl)amino)pyridin-2-yl)piperidin-1-yl)-5,5-dimethyl-5H-pyrrolo[2,3-d]pyrimidin-6(7H)-one]
0.3 nM | 0.7 nM | 5.8 nM | CC(C)NCCNc1ccc(-c2cc(Cl)nn2C)nc1C1CCN(c2ncnc3c2C(C)(C)C(=O)N3)CC1 [Compound 11, 4-(4-(6-(3-Chloro-1-methyl-1H-pyrazol-5-yl)-3-((2-(isopropylamino)ethyl)amino)pyridin-2-yl)piperidin-1-yl)-5,5-dimethyl-5H-pyrrolo[2,3-d]pyrimidin-6(7H)-one]
0.3 nM | 1.8 nM |  | CCNCCNc1ccc(-c2cncc(F)c2)nc1C1CCN(c2ncnc3c2C(C)(C)C(=O)N3)CC1 [Compound 12, 4-(4-(5-((2-(Ethylamino)ethyl)amino)-5′-fluoro[2,3′-bipyridin]-6-yl)piperidin-1-yl)-5,5-dimethyl-5H-pyrrolo[2,3-d]pyrimidin-6(7H)-one]
0.3 nM |  |  | CC(C)NCCNc1cc(F)c(-c2cncc(F)c2)nc1C1CCN(c2ncnc3c2C(C)(C)C(=O)N3)CC1 [Compound 28, 4-(4-(3,5′-Difluoro-5-((2-(isopropylamino)ethyl)amino)-[2,3′-bipyridin]-6-yl)piperidin-1-yl)-5,5-dimethyl-5H-pyrrolo[2,3-d]pyrimidin-6(7H)-one]
